Results published in patent US7786083B2, “Metastin derivatives and use thereof” (Takeda Pharmaceutical Company Limited, priority 2006, dated 2010).
*1 amine or outer side, *2 acyl side, *3 side chain or, on linkers, in order; H or OH if unused. Where a SMILES comes first, the peptide text is derived from it. Where no end group is shown, it is not given here. [ ]: non-standard residue; d: D form. Hexanoyl(5S-NH,4S-OH,6-Ph) = O=C(CC[C@H](O)[C@H](Cc1ccccc1)N[*:1])[*:2]; Glyψ(E-CHCH)Leu = CC(C)C[C@H](/C=C/CN[*:1])C(=O)[*:2]; Pro(trans-4-F) = O=C(O)[C@@H]1C[C@@H](F)CN1; X6 = O=C(COC[C@H](Cc1ccccc1)N[*:1])[*:2]; 2Nal = N[C@@H](Cc1ccc2ccccc2c1)C(=O)O; X1 = CC(C)C[C@H](CCCN[*:1])C(=O)[*:2]; Phe(2-Me) = Cc1ccccc1C[C@H](N)C(=O)O; Arg(Me) = CNC(=N)NCCC[C@H](N)C(=O)O; Dap(CONH2) = NC(=O)NC[C@H](N)C(=O)O; Ala(cPr) = N[C@@H](CC1CC1)C(=O)O; Hyp = O=C(O)[C@@H]1C[C@@H](O)CN1; Cha = N[C@@H](CC1CCCCC1)C(=O)O; Nle = CCCC[C@H](N)C(=O)O; Dap = NC[C@H](N)C(=O)O

Tested on: metastin receptors
Assay: Measurement of agonist activity by assaying changes in intracellular calcium ion level (FLIPR, Fluo-4 NW)
Type: cell-based, human
Details: specific activity of the EC50 of a test compound based on the EC50 of Metastin (45-54), metastin receptor expression CHO cells
Summary of the method: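 CHO/dhfr⁻ cells stably expressing human or rat metastin receptor, seeded 3×10^4/well for 24 h, loaded with Fluo-4 NW 30 min at 37 °C in HBSS with 0.1% BSA, 20 mM HEPES pH 7.4 and 1 mM probenecid. Compound-stimulated intracellular calcium change read on FLIPR.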

Row | Specific Activity | Compound
1 | 1.4 | CNC(=N)NCCC[C@H](NC(=O)[C@@H](/C=C/CNC(=O)[C@H](CC1CCCCC1)NC(=O)[C@@H](NC(=O)[C@H](CCC(N)=O)NC(=O)[C@@H]1C[C@@H](O)CN1C(=O)[C@@H](Cc1ccc(O)cc1)NC(C)=O)[C@@H](C)O)CC(C)C)C(=O)N[C@@H](Cc1c[nH]c2ccccc12)C(N)=O [Compound No. 913, des(1)-Ac-[D-Tyr2,Hyp3,Gln4,Thr5,Cha6,Gly7Ψ((E)CH═CH)Leu8,Arg(Me)9,Trp10]MS10] (Ac-[dY][Hyp]QT[Cha][Glyψ(E-CHCH)Leu][Arg(Me)]W-NH2)
2 | 0.7 | CNC(=N)NCCC[C@H](NC(=O)[C@H](CC1CC1)NC(=O)CNC(=O)[C@H](CC1CCCCC1)NC(=O)[C@@H](NC(=O)[C@H](CC(N)=O)NC(=O)[C@H](CCCCN)NC(=O)[C@@H](Cc1ccc(O)cc1)NC(C)=O)[C@@H](C)O)C(=O)N[C@@H](Cc1c[nH]c2ccccc12)C(N)=O [Compound No. 911, des(1)-Ac-[D-Tyr2,Lys3,Thr5,Cha6,Ala(cPr)8,Arg(Me)9,Trp10]MS10] (Ac-[dY]KNT[Cha]G[Ala(cPr)][Arg(Me)]W-NH2)
3 | 0.7 | CNC(=N)NCCC[C@H](NC(=O)[C@H](CC1CC1)NC(=O)CNC(=O)[C@H](CC1CCCCC1)NC(=O)[C@H](CN)NC(=O)[C@H](CNC(N)=O)NC(=O)[C@@H]1C[C@@H](O)CN1C(=O)[C@@H](Cc1ccc(O)cc1)NC(C)=O)C(=O)N[C@@H](Cc1c[nH]c2ccccc12)C(N)=O [Compound No. 951, des(1)-Ac-[D-Tyr2,Hyp3,Alb4,Dap5,Cha6,Ala(cPr)8,Arg(Me)9,Trp10]MS10] (Ac-[dY][Hyp][Dap(CONH2)][Dap][Cha]G[Ala(cPr)][Arg(Me)]W-NH2)
4 | 0.4 | CNC(=N)NCCC[C@H](NC(=O)[C@@H](/C=C/CNC(=O)[C@H](CC1CCCCC1)NC(=O)[C@@H](NC(=O)[C@H](CNC(N)=O)NC(=O)[C@@H]1C[C@@H](O)CN1C(=O)[C@@H](Cc1ccc(O)cc1)NC(C)=O)[C@@H](C)O)CC(C)C)C(=O)N[C@@H](Cc1c[nH]c2ccccc12)C(N)=O [Compound No. 903, des(1)-Ac-[D-Tyr2,Hyp3,Alb4,Thr5,Cha6,Gly7Ψ((E)CH═CH)Leu8,Arg(Me)9,Trp10]MS10] (Ac-[dY][Hyp][Dap(CONH2)]T[Cha][Glyψ(E-CHCH)Leu][Arg(Me)]W-NH2)
5 | 1.3 | CNC(=N)NCCC[C@H](NC(=O)[C@H](CC(C)C)NC(=O)[C@H](CN)NC(=O)[C@H](Cc1ccccc1)NC(=O)[C@@H](NC(=O)[C@H](CC(N)=O)NC(=O)[C@@H]1C[C@@H](O)CN1C(=O)[C@@H](Cc1ccc(O)cc1)NC(C)=O)[C@@H](C)O)C(=O)N[C@@H](Cc1c[nH]c2ccccc12)C(N)=O [Compound No. 827, des(1)-Ac-[D-Tyr2,Hyp3,Thr5,Dap7,Arg(Me)9,Trp10]MS10] (Ac-[dY][Hyp]NTF[Dap]L[Arg(Me)]W-NH2)
6 | 3.5 | CNC(=N)NCCC[C@H](NC(=O)[C@H](CC1CCCCC1)NC(=O)CNC(=O)[C@H](CC1CCCCC1)NC(=O)[C@@H](NC(=O)[C@H](CC(N)=O)NC(=O)[C@@H]1C[C@@H](O)CN1C(=O)[C@@H](Cc1ccc(O)cc1)NC(C)=O)[C@@H](C)O)C(=O)N[C@@H](Cc1c[nH]c2ccccc12)C(N)=O [Compound No. 934, des(1)-Ac-[D-Tyr2,Hyp3,Thr5,Cha6,8,Arg(Me)9,Trp10]MS10] (Ac-[dY][Hyp]NT[Cha]G[Cha][Arg(Me)]W-NH2)
7 | 0.4 | CC(=O)N[C@H](Cc1ccc(O)cc1)C(=O)N1C[C@H](O)C[C@H]1C(=O)N[C@@H](CC(N)=O)C(=O)N[C@H](C(=O)N[C@@H](Cc1ccccc1)C(=O)NC/C=C/[C@@H](CC(C)C)C(=O)N[C@@H](CCCNC(=N)N)C(=O)N[C@@H](Cc1c[nH]c2ccccc12)C(N)=O)[C@@H](C)O [Compound No. 925, des(1)-Ac-[D-Tyr2,Hyp3,Thr5,Gly7Ψ((E)CH═CH)Leu8,Trp10]MS10] (Ac-[dY][Hyp]NTF[Glyψ(E-CHCH)Leu]RW-NH2)
8 | 1.2 | CNC(=N)NCCC[C@H](NC(=O)[C@H](CC(C)C)NC(=O)CC[C@H](O)[C@H](Cc1ccccc1)NC(=O)[C@@H](NC(=O)[C@H](CC(N)=O)NC(=O)[C@@H]1C[C@@H](O)CN1C(=O)[C@@H](Cc1ccc(O)cc1)NC(C)=O)[C@@H](C)O)C(=O)N[C@@H](Cc1c[nH]c2ccccc12)C(N)=O [Compound No. 857, des(1)-Ac-[D-Tyr2,Hyp3,Thr5,Phe6Ψ((S)CHOH—CH2)Gly7,Arg(Me)9,Trp10]MS10] (Ac-[dY][Hyp]NT[Hexanoyl(5S-NH,4S-OH,6-Ph)]L[Arg(Me)]W-NH2)
9 | 0.5 | CNC(=N)NCCC[C@H](NC(=O)[C@H](CC(C)C)NC(=O)COC[C@H](Cc1ccccc1)NC(=O)[C@@H](NC(=O)[C@H](CC(N)=O)NC(=O)[C@@H]1C[C@@H](O)CN1C(=O)[C@@H](Cc1ccc(O)cc1)NC(C)=O)[C@@H](C)O)C(=O)N[C@@H](Cc1c[nH]c2ccccc12)C(N)=O [Compound No. 834, des(1)-Ac-[D-Tyr2,Hyp3,Thr5,Phe6Ψ(CH2O)Gly7,Arg(Me)9,Trp10]MS10] (Ac-[dY][Hyp]NT[X6]L[Arg(Me)]W-NH2)
10 | 1.1 | CC(=O)N[C@H](Cc1ccc(O)cc1)C(=O)N1C[C@H](O)C[C@H]1C(=O)N[C@@H](CC(N)=O)C(=O)N[C@H](C(=O)N[C@@H](CC1CCCCC1)C(=O)NCCC[C@@H](CC(C)C)C(=O)N[C@@H](CCCNC(=N)N)C(=O)N[C@@H](Cc1c[nH]c2ccccc12)C(N)=O)[C@@H](C)O [Compound No. 956, des(1)-Ac-[D-Tyr2,Hyp3,Thr5,Cha6,Gly7Ψ(CH2CH2)Leu8,Trp10]MS10] (Ac-[dY][Hyp]NT[Cha][X1]RW-NH2)
11 | 0.7 | CNC(=N)NCCC[C@H](NC(=O)[C@H](CC(C)C)NC(=O)CNC(=O)[C@H](Cc1ccccc1C)NC(=O)[C@@H](NC(=O)[C@H](CC(N)=O)NC(=O)[C@@H]1C[C@@H](O)CN1C(=O)[C@@H](Cc1ccc(O)cc1)NC(C)=O)[C@@H](C)O)C(=O)N[C@@H](Cc1c[nH]c2ccccc12)C(N)=O [Compound No. 871, des(1)-Ac-[D-Tyr2,Hyp3,Thr5,Phe(2Me)6,Arg(Me)9,Trp10]MS10] (Ac-[dY][Hyp]NT[Phe(2-Me)]GL[Arg(Me)]W-NH2)
12 | 0.6 | CCCC[C@H](NC(=O)CNC(=O)[C@H](CC1CCCCC1)NC(=O)[C@@H](NC(=O)[C@H](CC(N)=O)NC(=O)[C@@H]1C[C@@H](O)CN1C(=O)[C@@H](Cc1ccc(O)cc1)NC(C)=O)[C@@H](C)O)C(=O)N[C@@H](CCCNC(=N)NC)C(=O)N[C@@H](Cc1c[nH]c2ccccc12)C(N)=O [Compound No. 932, des(1)-Ac-[D-Tyr2,Hyp3,Thr5,Cha6,Nle8,Arg(Me)9,Trp10]MS10] (Ac-[dY][Hyp]NT[Cha]G[Nle][Arg(Me)]W-NH2)

Row | Compound | Specific Activity
13 | des(1)-Ac-[D-Tyr2,Pro(4F)3,Thr5,Cha6,Ala(cPr)8,Arg(Me)9,Trp10]MS10 (Ac-[dY][Pro(trans-4-F)]NT[Cha]G[Ala(cPr)][Arg(Me)]W-NH2; SMILES CNC(=N)NCCC[C@H](NC(=O)[C@H](CC1CC1)NC(=O)CNC(=O)[C@H](CC1CCCCC1)NC(=O)[C@@H](NC(=O)[C@H](CC(N)=O)NC(=O)[C@@H]1C[C@@H](F)CN1C(=O)[C@@H](Cc1ccc(O)cc1)NC(C)=O)[C@@H](C)O)C(=O)N[C@@H](Cc1c[nH]c2ccccc12)C(N)=O) [Compound No. 959] | 0.4
14 | des(1)-Ac-[D-Tyr2,Hyp3,Thr5,Nal(2)6,Arg(Me)9,Trp10]MS10 (Ac-[dY][Hyp]NT[2Nal]GL[Arg(Me)]W; ends and bridges not checked) [Compound No. 919] | 1.0
